What is called LC50 is the concentration lethal to half of the exposed cells or organisms. In general, MBC refers to the smallest concentration meeting the test's criterion for killing. Usually MIC stands for the lowest concentration found to suppress growth. For orientation: IC50 means the concentration that gives 50% inhibition.

In brackets after ≈: the same amount, converted by molar mass. Like-named read-outs stand apart in the source and are kept apart here.

The values that follow come from paper PMC11013662, “New Thiosemicarbazide Derivatives with Multidirectional Biological Action” (Molecules, 2024).

Series [1] deals with Rhabditis sp. Also on record: method as in PMID 35408557. As to conditions: reference drug; cited from earlier work.
The subject of series [2] is Staphylococcus aureus ATCC 43300. In words: Broth microdilution MIC / MBC. As to conditions: ATCC 43300 / MRSA. The format is cell-based. How it is done: (§1) The microdilution method was used to determine the MIC values of newly synthesized compounds. The antimicrobial activity of the thiosemicarbazides series was tested on ten reference bacterial strains purchased from the American Type Culture Collection (ATCC). Seven Gram-positive reference strains (S. aureus ATCC 29213, S. aureus ATCC 43300, S. aureus ATCC 6538, S. aureus ATCC 25923, S. epidermidis ATCC 12228, M. luteus ATCC 10240, and B. cereus ATCC 10876) and three Gram-negative reference bacteria (K. pneumoniae ATCC 13883, E. coli ATCC 25922, S. typhimurium ATCC 14028) were used. These bacterial strains are representatives of microorganisms that can cause the most common opportunistic infections among humans. The bacteria were grown on Mueller–Hinton agar (MHA) plates before examination. To perform the assay, all bacteria were placed in sterile saline (0.85% NaCl) to obtain a suspension of the optical density of the 0.5 McFarland standard (1.50 × 10^8 colony-forming units (CFUs)/mL). A solution of the tested compounds was prepared in dimethyl sulfoxide (DMSO) at a concentration of 50 mg/mL as a stock solution.
(§2) A 96-well microtiter plate and microbroth two-fold dilution method was used to determine the minimum inhibitory concentration (MIC) according to the EUCAST (European Committee on Antimicrobial Susceptibility Testing) reference recommendation. The solutions were then diluted with Mueller–Hinton broth (MHB, Biomaxima, Lublin, Poland) medium to obtain a solution with a basic concentration of 1000 µg/mL. Then, using the two-fold dilution method with MHB, the tested compounds were introduced into the wells of the microplate to provide a final concentration in the range of 0.49 to 1000 µg/mL. Then, 2 μL of bacterial inoculum with a density of 0.5 McFarland standard was added into each well. Each well was filled with a total volume of 100 μL. Then, microtiter plates were incubated for 18 ± 2 h at 35 °C. After incubation, the growth of bacteria was monitored by a Biotek ELx800 (Biokom, Janki, Poland) spectrophotometer at 600 nm (OD600). The MIC assays were performed in triplicate.
(§3) A negative control with MHB and without tested compounds was used. Clinically used anti-bacterial agents, cefuroxime and vancomycin, were included as positive controls for the purpose of comparison in a concentration range from 0.007 to 15.625 µg/mL.
(§4) The in vitro antimicrobial activity of the tested compounds was determined by the MIC, which was defined as the lowest concentration of the compound tested at which no visible growth of the test bacteria was observed. The MBC (the minimum bactericidal concentration) is defined as the lowest concentration of antimicrobial agent resulting in reduction in the viability of the initial bacterial inoculum by ≥99.9% on the plate. Generally, an MBC/MIC ratio less than 4 is considered bactericidal for an antimicrobial, and an MBC/MIC > 8 is indicative of bacteriostatic activity. For the MBC test, the Mueller–Hinton agar (MHA, Biomaxima, Poland) plate assay was used. MBC was determined after the broth dilution period of an MIC test has been completed. After the MIC detection, 5 µL aliquots from each well were plated on an MHA plate and grown at 35 °C overnight. The MBC values were determined by observing the first clear area on the agar plate that has no observable bacterial growth.

The test system of series [3] is Staphylococcus aureus ATCC 25923. In words: Broth microdilution MIC / MBC. It is filed as cell-based. As for the experimental part:
as §1, §2, §3, §4
For orientation: Dilution methods test growth across graded concentrations, often in twofold steps.

For series [4], the system named is Staphylococcus epidermidis ATCC 12228. In words: Broth microdilution MIC / MBC. It is filed as cell-based. To be noted: ATCC12228, S. epidermidis ATCC 12228. As for the experimental part: as §1, §2, §3, §4
Series [5] relates to Micrococcus luteus ATCC 10240. Put plainly: Broth microdilution MIC / MBC. The format is cell-based. To be noted: ATCC10240, M. luteus ATCC 10240. As for the experimental part: as §1, §2, §3, §4
Series [6] concerns Bacillus cereus ATCC 10876. Put plainly: Broth microdilution MIC / MBC. The format is cell-based. As to conditions: ATCC10876, B. cereus ATCC 10876. As for the experimental part:
as §1, §2, §3, §4

The subject of series [7] is Staphylococcus aureus ATCC 6538. In words: Broth microdilution MIC / MBC. The format is cell-based. To be noted: ATCC6538, S. aureus ATCC 6538. As for the experimental part: as §1, §2, §3, §4
Series [8] relates to SW 620 human metastatic colon cancer cells. Put plainly: MTT cytotoxicity assay. The format is cell-based. As to conditions: Homo sapiens; SW 620, MTT, 72 h. How it is done:
Both lines were obtained from American Type Culture Collection (ATCC, Rockville, MD, USA). The culture used to grow the SW 620 cells was prepared in MEM (ThermoSci, Waltham, MA, USA). The V79 cells were cultured in RPMI (Biowest SAS, Nuaillé, France) with the addition of 20 mM HEPES (Biowest, Nuaillé, France), 10% fetal bovine serum (FBS, Sigma-Aldrich, St. Louis, MO, USA), 100 µg/mL of streptomycin, and 100 U/mL of penicillin (Gibco, Grand Island, NY, USA). […] The MTT assay was used to establish the cytotoxic activity of the studied compounds. […] The process starts with the preparation of 96-well plates by placing cells at a density of 1 × 10^4 per well and incubating them for 24 h to adhere. […] Next, cells were incubated for 72 h at 37 °C with a 5% CO2. Then, a solution of MTT (0.5 mg/mL) was added to each well and plates were incubated for 4 h more in the same conditions. To dissolve precipitated formazan crystals, a mixture of DMSO and isopropanol (in a 1:1 ratio, v/v) was used. […] Cell viability was determined as the percentage of MTT reduction in the treated cells compared to the control group (unexposed cells). The relative MTT level, represented as a percentage, was calculated using the formula [A]/[B] × 100, where [A] stands for the absorbance of the treated cell sample and [B] for the absorbance of unexposed to studied compounds sample (control group).
(In general: Tetrazolium assays rely on reduction of a dye to a coloured formazan, in cell work by metabolically active cells.)

Series [9] relates to V79 Chinese hamster lung cells. In words: MTT cytotoxicity assay. The format is cell-based. To be noted: Cricetulus griseus, V 79 normal cells, 72 h. As for the experimental part: Both lines were obtained from American Type Culture Collection (ATCC, Rockville, MD, USA). The culture used to grow the SW 620 cells was prepared in MEM (ThermoSci, Waltham, MA, USA). The V79 cells were cultured in RPMI (Biowest SAS, Nuaillé, France) with the addition of 20 mM HEPES (Biowest, Nuaillé, France), 10% fetal bovine serum (FBS, Sigma-Aldrich, St. Louis, MO, USA), 100 µg/mL of streptomycin, and 100 U/mL of penicillin (Gibco, Grand Island, NY, USA). The eligible level of cells confluence was 80–90%, and both cell cultures were maintained in a humidified incubator set at 37 °C with 5% CO2 until they reached it.
The MTT assay was used to establish the cytotoxic activity of the studied compounds. The mechanism of this method relies on enzymatic conversion of 3-(4,5-dimethylthiazol-2-yl)-2,5-diphentyltetrazolium bromide salt (MTT) into insoluble formazan crystals by mitochondrial dehydrogenases within viable cells.
The process starts with the preparation of 96-well plates by placing cells at a density of 1 × 10^4 per well and incubating them for 24 h to adhere. Afterwards, the cells were treated with different concentrations of thiosemicarbazide derivatives, from 20 to 100 µM, except the control group which remained not exposed. Next, cells were incubated for 72 h at 37 °C with a 5% CO2. Then, a solution of MTT (0.5 mg/mL) was added to each well and plates were incubated for 4 h more in the same conditions.
To dissolve precipitated formazan crystals, a mixture of DMSO and isopropanol (in a 1:1 ratio, v/v) was used. For the spectrophotometric survey, we used MultiscanGo from Thermo Scientific with the wavelength value set at 570 nm to measure absorbance.
Cell viability was determined as the percentage of MTT reduction in the treated cells compared to the control group (unexposed cells). The relative MTT level, represented as a percentage, was calculated using the formula [A]/[B] × 100, where [A] stands for the absorbance of the treated cell sample and [B] for the absorbance of unexposed to studied compounds sample (control group). […] To calculate IC50 values (concentration at which 50% of cell viability is inhibited), we used GraphPad Prism 8.0.1 software.

For `CCCSc1ccc2nc(NC(=O)OC)[nH]c2c1` [albendazole], in series [1], the LC50 was 19200 µg/mL (≈ 72500 µM).
Turning to `CN[C@H](CC(C)C)C(=O)N[C@H]1C(=O)N[C@@H](CC(N)=O)C(=O)N[C@H]2C(=O)N[C@H]3C(=O)N[C@H](C(=O)N[C@H](C(=O)O)c4cc(O)cc(O)c4-c4cc3ccc4O)[C@H](O)c3ccc(c(Cl)c3)Oc3cc2cc(c3O[C@@H]2O[C@H](CO)[C@@H](O)[C@H](O)[C@H]2O[C@H]2C[C@](C)(N)[C@H](O)[C@H](C)O2)Oc2ccc(cc2Cl)[C@H]1O` [Van, vancomycin, reference compound], the MBC in series [2] and in [3] (ATCC25923) was 2 µg/mL (≈ 1.38 µM) each time. The MIC in series [2] and in series [3] (ATCC25923) was 2 µg/mL (≈ 1.38 µM) in each case.
With `CO/N=C(\C(=O)N[C@@H]1C(=O)N2C(C(=O)O)=C(COC(N)=O)CS[C@H]12)c1ccco1` [Cef, cefuroxime, reference compound], the MIC in [4] amounted to 0.25 µg/mL (≈ 0.589 µM); in [5], 0.25 µg/mL (≈ 0.589 µM); in [6], 31.2 µg/mL (≈ 73.6 µM); in [7], 0.98 µg/mL (≈ 2.31 µM); in series [3] (ATCC25923, S. aureus ATCC 25923, read-out: MIC), 0.49 µg/mL (≈ 1.15 µM).
As for `COc1cccc2c1C(=O)c1c(O)c3c(c(O)c1C2=O)C[C@@](O)(C(=O)CO)C[C@@H]3O[C@H]1C[C@H](N)[C@H](O)[C@H](C)O1` [Ref, Doxorubicin, reference compound], the values for the IC50 in [8] and in series [9] were 1.83 ± 0.1 µM and 0.46 ± 0.03 µM, respectively.
